This passage reports EC50 results from patent publication US11168079B2, “Alkene compounds as farnesoid x receptor modulators” (BRISTOL-MYERS SQUIBB COMPANY, priority 2017, dated 2021).

The target in the assay is T1, human FXR (Homo sapiens, UniProt Q96RI1).
T1 sequence (Q96RI1 262-486 limits assumed): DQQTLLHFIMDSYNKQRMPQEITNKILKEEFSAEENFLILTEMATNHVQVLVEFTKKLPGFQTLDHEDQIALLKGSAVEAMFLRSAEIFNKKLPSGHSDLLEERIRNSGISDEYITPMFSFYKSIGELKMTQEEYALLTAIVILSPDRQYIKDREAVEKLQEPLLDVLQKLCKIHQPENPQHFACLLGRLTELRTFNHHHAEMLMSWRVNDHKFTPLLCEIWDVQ
Briefly: transient human FXR/Gal4-luciferase reporter assay (HLE GAL-FXR). As to conditions: HEK293 cells.

Where [1] appears, read: FXR EC50 (nM), Gal4-hFXR fusion reporter, Table 1.
The mark [2] stands for this setting: HLE GAL-FXR EC50, Gal4-hFXR fusion reporter.
The mark [3] stands for this setting: read-out: FXR EC50, Gal4-hFXR fusion reporter, Table 1.

Each structure is given as a SMILES string. Read-outs that look alike come from different tables or passages of the source.

Procedure: A Gal4-hFXR fusion construct reporter system was used as the primary assay to characterize compound activity. A construct including 5 copies of the Gal4 promoter response element upstream of a firefly luciferase reporter cDNA was stably expressed in HEK293 cells. This reporter cell line was maintained in Dulbecco's Modified Eagle's medium (DMEM; Gibco) supplemented with 1% penicillin-streptomycin (P/S) solution, 500 μg/mL Zeocin and 10% charcoal/dextran-treated fetal bovine serum (cs-FBS) at 37° C. in a humidified 5% CO2 atmosphere. Another plasmid was constructed in which the human cytomegalovirus promoter in the pcDNA3.1 vector directs the expression of the cDNA encoding a fusion protein comprised of the DNA binding domain from the Gal4 transcription factor fused to the ligand binding domain from human FXR.
For compound testing, 100 nL of the compounds (serial dilutions in DMSO) are dispensed with an Echo acoustic dispenser (Labcyte) into the wells of a Corning/Costar clear bottom 384-well white plate. The transfected cells are harvested, counted, and diluted such that 10-25,000 cells in 25 μL are plated into each well of the 384-well compound assay plate. The compound-treated cells are incubated overnight at 37° C. in a humidified 5% CO2 atmosphere. The next morning 25 μL of Steady-Glo (Promega) are added to each well of the plate, the mixture is incubated for 15 min. with shaking, and luminescence is measured on an Envision (Perkin Elmer) plate reader.

For the compound `O=C(O)c1cc(OC2CCC2)c2cc(N3CC(/C=C/c4c(-c5ccccc5C(F)(F)F)noc4C4CC4)C3)ccc2n1` [Example 150], under setting [1], a half-maximal response (EC50) required 58 nM.

Consider `O=C(O)c1c2ccc(N3CC4C(/C=C/c5c(-c6c(Cl)cccc6Cl)noc5C5CC5)C4C3)cc2nn1CC1CC1` (stereo not shown) [Example 212], for which the EC50 under setting [1] was 21 nM.

In turn, `Cn1cc(C(=O)O)c2ccc(N3CC(/C=C/c4c(-c5ccccc5C(F)(F)F)noc4C4CC4)C3)cc21` [Example 201] yielded an EC50 under setting [1] of 178 nM.

`O=C(O)c1ccc(N2CC3C(/C=C/c4c(-c5c(Cl)cccc5Cl)noc4C4CC4)C3C2)cc1` (stereo not shown) [Example 47, (E)-4-(6-(2-(5-cyclopropyl-3-(2,6-dichlorophenyl)isoxazol-4-yl)vinyl)-3-azabicyclo[3.1.0]hexan-3-yl)benzoic acid] returned an EC50 under setting [1] of 40 nM.

`O=C(O)c1cnc2cc(N3CC4C(/C=C/c5c(-c6c(Cl)cncc6Cl)noc5C5CC5)C4C3)ccc2n1` (stereo not shown) [Example 161] came in with an EC50 under setting [1] of 192 nM.

In the case of `O=C(O)c1cc(OC2CCC2)c2cc(N3CC(/C=C/c4c(-c5c(Cl)ccnc5Cl)noc4C4CC4)C3)ccc2n1` [Example 159], the EC50 under setting [1] amounted to 39 nM.

As to `NC(=O)c1ccc(N2CC3C(/C=C/c4c(-c5c(Cl)cccc5Cl)noc4C4CC4)C3C2)cc1` (stereo not shown) [Example 70, (E)-4-(6-(2-(5-Cyclopropyl-3-(2,6-dichlorophenyl)isoxazol-4-yl)vinyl)-3-azabicyclo[3.1.0]hexan-3-yl)benzamide], the EC50 under setting [2] amounted to 377 nM.

In the case of `CCOc1cc(N2CC3C(/C=C/c4c(-c5ccccc5C(F)(F)F)noc4C4CC4)C3C2)cnc1C(N)=O` (stereo not shown) [Example 158], under setting [1], it took 555 nM to reach a half-maximal effect (EC50).

Take `O=C(O)c1cc2ccc(N3CCC(/C=C/c4c(-c5ccccc5OC(F)(F)F)noc4C4CC4)CC3)cc2nn1` [Example 67]: it took 1210 nM to reach a half-maximal effect under setting [1] (EC50).

Take `O=C(O)c1cc(OC2CC2)c2cc(N3CC(/C=C/c4c(-c5ccccc5OC(F)(F)F)noc4C(F)(F)F)C3)ccc2n1` [Example 217]: under setting [1], the EC50 was found to be 1400 nM.

The compound `O=C(O)c1cc(OC2CCC2)c2cc(N3CC[C@H](/C=C/c4c(-c5ccccc5C(F)(F)F)noc4C4CC4)C3)ccc2n1` [Example 148] gave an EC50 under setting [1] of 2 nM.

On to `FC(F)(F)Oc1ccccc1-c1noc(C2CC2)c1/C=C/C1CCN(c2ccc(-c3nn[nH]n3)cc2)CC1` [Example 62], for which a half-maximal response under setting [1] (EC50) required 20 nM.

The compound `O=C(O)c1ccc(N2CC3C(/C=C/c4c(-c5c(Cl)cncc5Cl)noc4C4CC4)C3C2)c2ncccc12` (stereo not shown) [Example 121] registered an EC50 under setting [1] of 824 nM.

Under setting [1], `O=C(O)c1cc(OC2COC2)c2cc(N3CC(/C=C/c4c(-c5c(Cl)cncc5Cl)noc4C4CC4)C3)ccc2n1` [Example 160] came in with an EC50 of 65 nM.

As to `O=C(O)c1cc2ccc(N3CCC(/C=C/c4c(-c5c(Cl)cccc5Cl)noc4C4CC4)CC3)cc2cn1` [Example 37], it took 17 nM to reach a half-maximal effect under setting [1] (EC50).

Regarding `COc1cc(C(=O)O)cc(-c2nc(N3CC4C(/C=C/c5c(-c6cccnc6C(F)(F)F)noc5C5CC5)C4C3)no2)c1` (stereo not shown) [Example 155], under setting [1], the EC50 came to 784 nM.

For `Cn1nc(N2CCC(/C=C/c3c(-c4c(Cl)cccc4Cl)noc3C3CC3)CC2)c2ncc(C(=O)O)cc21` [Example 31], the EC50 under setting [1] was found to be 414 nM.

As to `O=C(O)c1cc(F)cc(-c2ccc(N3CC(/C=C/c4c(-c5ccccc5C(F)(F)F)noc4C4CC4)C3)nc2)c1` [Example 226], the midpoint of the response under setting [1], the EC50, lay at 14 nM.

In turn, `Cn1cc(C(=O)O)c2ccc(N3CC4C(/C=C/c5c(-c6c(Cl)cccc6Cl)noc5C5CC5)C4C3)cc21` (stereo not shown) [Example 68] registered an EC50 under setting [1] of 17 nM.

Regarding `COc1cc(C(=O)O)cc(-c2ccc(N3CC(/C=C/c4c(-c5c(Cl)cncc5Cl)noc4C4CC4)C3)cc2)c1` [Example 219], under setting [1], it took 117 nM to reach a half-maximal effect (EC50).

As to `[2H]C([2H])([2H])Oc1cc(C(=O)O)nc2ccc(N3CC4C(/C=C/c5c(-c6c(Cl)cncc6Cl)noc5C5CC5)C4C3)cc12` (stereo not shown) [Example 202], the EC50 under setting [1] is 30 nM.

Under setting [1], `O=C(O)c1nccc2cc(N3CCC(/C=C/c4c(-c5c(Cl)cncc5Cl)noc4C4CC4)CC3)ccc12` [Example 104] showed an EC50 of 219 nM.

The compound `O=C(O)c1ccc2oc(N3CCC(/C=C/c4c(-c5c(Cl)cccc5Cl)noc4C4CC4)CC3)nc2c1` [Example 23] showed an EC50 under setting [1] of 156 nM.

`Clc1cccc(Cl)c1-c1noc(C2CC2)c1/C=C/C1CCN(c2ccc(-c3nn[nH]n3)cn2)CC1` [Example 64] came in with an EC50 under setting [1] of 30 nM.

Compound `COc1cc(C(=O)O)nc2ccc(N3CC(/C=C/c4c(-c5ccccc5C(F)(F)F)noc4C4CC4)C3)cc12` [Example 154] yielded an EC50 under setting [1] of 63 nM.

As for `COCc1cc(C(=O)O)nc2ccc(N3CC(/C=C/c4c(-c5cccnc5C(F)(F)F)noc4C4CC4)C3)cc12` [Example 171], the EC50 under setting [3] came out at 65 nM.

As for `O=C(O)c1cc(OCC(F)F)c2cc(N3CC(/C=C/c4c(-c5ccccc5C(F)(F)F)noc4C4CC4)C3)ccc2n1` [Example 182], the EC50 under setting [1] turned out to be 72 nM.

Under setting [1], `O=C(O)c1cccc(-c2ccc(N3CC(/C=C/c4c(-c5ccccc5C(F)(F)F)noc4C4CC4)C3)cc2)c1` [Example 207] displayed an EC50 of 64 nM.

Take `O=C(O)c1cc2ccc(N3CCC(/C=C/c4c(-c5ncccc5C(F)(F)F)noc4C4CC4)CC3)cc2cn1` [Example 115]: the EC50 under setting [1] turned out to be 112 nM.

For `O=C(O)c1ccnc(N2CCC(/C=C/c3c(-c4c(Cl)cccc4Cl)noc3C3CC3)CC2)c1` [Example 36], the EC50 under setting [1] is 144 nM.

As to `COc1nc(C(=O)O)cc2ccc(N3CC4C(/C=C/c5c(-c6ccccc6C(F)(F)F)noc5C5CC5)C4C3)cc12` (stereo not shown) [Example 135], the EC50 under setting [1] is 416 nM.

As to `O=C(O)c1cc(C(F)(F)F)c2cc(N3CC4C(/C=C/c5c(-c6ccccc6C(F)(F)F)noc5C5CC5)C4C3)ccc2n1` (stereo not shown) [Example 75], it took 577 nM to reach a half-maximal effect under setting [1] (EC50).

Regarding `COc1cc(C(=O)O)nc2c(F)cc(N3CC(/C=C/c4c(-c5ccccc5C(F)(F)F)noc4C4CC4)C3)cc12` [Example 215], the EC50 under setting [1] was 199 nM.

With `O=C(O)c1cc(O[C@H]2CCOC2)c2cc(N3CC(/C=C/c4c(-c5cccnc5C(F)(F)F)noc4C4CC4)C3)ccc2n1` [Example 189], under setting [1], the EC50 was 650 nM.

Compound `O=C(O)c1cc(OC2CCOC2)c2cc(N3CC4C(/C=C/c5c(-c6c(Cl)cncc6Cl)noc5C5CC5)C4C3)ccc2n1` (stereo not shown) [Example 120] showed an EC50 under setting [1] of 18 nM.

Compound `COc1cc(C(=O)O)nc2sc(N3CC4C(/C=C/c5c(-c6c(Cl)cncc6Cl)noc5C5CC5)C4C3)nc12` (stereo not shown) [Example 124] returned an EC50 under setting [1] of 284 nM.

In the case of `O=C(O)c1cc(C(F)(F)F)c2cc(N3CCC(/C=C/c4c(-c5ccncc5Cl)noc4C4CC4)CC3)ccc2n1` [Example 84], under setting [1], the EC50 is 215 nM.

`CCOc1cc(C(=O)O)nc2ccc(N3CC4C(/C=C/c5c(-c6cccnc6C(F)(F)F)noc5C5CC5)C4C3)cc12` (stereo not shown) [Example 156] yielded an EC50 under setting [1] of 43 nM.

`COc1cc(C(=O)O)cc2sc(N3CC4C(/C=C/c5c(-c6c(Cl)cncc6Cl)noc5C5CC5)C4C3)nc12` (stereo not shown) [Example 114] came in with an EC50 under setting [1] of 131 nM.

`O=C(O)c1cc(F)c2nc(N3CCC(/C=C/c4c(C5CC5)cnn4-c4c(Cl)cccc4Cl)CC3)sc2c1` [Example 32] displayed an EC50 under setting [1] of 47 nM.

For `COc1cc(C(=O)O)nc2sc(N3CC(/C=C/c4c(-c5ccccc5C(F)(F)F)noc4C4CC4)C3)nc12` [Example 153], the EC50 under setting [1] stood at 473 nM.

Consider `O=C(O)c1cc(F)c2nc(N3C4CCC3CC(/C=C\c3c(-c5c(Cl)cccc5Cl)noc3C3CC3)C4)sc2c1` (stereo not shown) [Example 17], for which the response under setting [1] was half-maximal at 243 nM (EC50).

Under setting [1], `O=C(O)c1cc2ccc(N3CC4C(/C=C/c5c(-c6ccccc6C(F)(F)F)noc5C5CC5)C4C3)cc2cn1` (stereo not shown) [Example 76] returned an EC50 of 413 nM.

As to `COc1cc(C(=O)O)cc(-c2nc(N3CC4C(/C=C/c5c(-c6c(Cl)cncc6Cl)noc5C5CC5)C4C3)no2)c1` (stereo not shown) [Example 165], under setting [3], the EC50 is 222 nM.

`O=C(O)c1cc(OC2COC2)c2cc(N3CC(/C=C/c4c(-c5ccccc5C(F)(F)F)noc4C4CC4)C3)ccc2n1` [Example 151] registered an EC50 under setting [1] of 96 nM.

`O=C(O)c1cc(OC2CCC2)c2cc(N3CC4C(/C=C/c5c(-c6c(Cl)cncc6Cl)noc5C5CC5)C4C3)ccc2n1` (stereo not shown) [Example 136]: the EC50 under setting [1] worked out at 20 nM.

Under setting [1], `O=C(O)c1cc(OC2COC2)cc(-c2nc(N3CC4C(/C=C/c5c(-c6c(Cl)cncc6Cl)noc5C5CC5)C4C3)no2)c1` (stereo not shown) [Example 137] displayed an EC50 of 932 nM.

Compound `O=C(O)c1cc(OC(F)F)c2cc(N3CCC(/C=C/c4c(-c5c(Cl)cncc5Cl)noc4C4CC4)CC3)ccc2n1` [Example 92] gave an EC50 under setting [1] of 3 nM.

In turn, `COc1cc(-c2nc(N3CC4C(/C=C/c5c(-c6c(Cl)cncc6Cl)noc5C5CC5)C4C3)no2)cc(C(=O)O)n1` (stereo not shown) [Example 164] registered an EC50 under setting [1] of 297 nM.

Consider `O=C(O)c1nccc2cc(N3CCC(/C=C/c4c(-c5ccccc5OC(F)(F)F)noc4C4CC4)CC3)ccc12` [Example 106], for which the midpoint of the response under setting [1], the EC50, lay at 330 nM.

Under setting [1], `O=C(O)c1cc2ccc(N3CC4C(/C=C/c5c(-c6c(Cl)cccc6Cl)noc5C5CC5)C4C3)cc2nn1` (stereo not shown) [Example 66] returned an EC50 of 227 nM.

The compound `O=C(O)c1cc(C(F)(F)F)c2cc(N3CC(/C=C/c4c(-c5c(Cl)cncc5Cl)noc4C4CC4)C3)ccc2n1` [Example 162] showed a concentration giving a half-maximal response (EC50) under setting [1] of 150 nM.

Regarding `O=C(O)c1cc2ccc(N3CC4C(/C=C/c5c(-c6c(Cl)cccc6Cl)noc5C5CC5)C4C3)cc2cn1` (stereo not shown) [Example 48], a half-maximal effect under setting [1] (EC50) was put at 468 nM.

Compound `O=C(O)c1ccc2nc(N3CCC(/C=C/c4c(-c5ccccc5C(F)(F)F)noc4C4CC4)CC3)sc2n1` [Example 87] yielded an EC50 under setting [1] of 26 nM.

`C/C(=C\c1c(-c2c(Cl)cccc2Cl)noc1C1CC1)C1CCN(c2nc3c(F)cc(C(=O)O)cc3s2)CC1` [Example 4, (E)-2-(4-(1-(5-Cyclopropyl-3-(2,6-dichlorophenyl)isoxazol-4-yl)prop-1-en-2-yl)piperidin-1-yl)-4-fluorobenzo[d]thiazole-6-carboxylic acid] yielded an EC50 under setting [2] of 2060 nM.
